Broadly, the IC50 is the midpoint of a concentration-inhibition curve. Low values mean higher potency, high ones lower potency.

Rho kinase (fused protein of bovine Rho kinase catalyst region and glutathione S-transferase), sequence (Q28021 92-354 limits assumed): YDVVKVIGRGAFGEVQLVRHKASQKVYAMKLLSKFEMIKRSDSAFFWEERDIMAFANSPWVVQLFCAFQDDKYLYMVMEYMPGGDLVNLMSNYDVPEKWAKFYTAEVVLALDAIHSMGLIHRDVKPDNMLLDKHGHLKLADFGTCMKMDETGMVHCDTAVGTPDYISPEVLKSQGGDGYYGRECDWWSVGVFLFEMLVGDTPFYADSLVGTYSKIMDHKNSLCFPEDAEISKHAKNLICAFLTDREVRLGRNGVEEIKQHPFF

The experiment concerns the target Rho kinase (fused protein of bovine Rho kinase catalyst region and glutathione S-transferase) (Bos taurus, UniProt Q28021). As to the kind of experiment: Rho kinase inhibitory activity (phosphorylation of S6 231–239 substrate, γ32P-ATP). Format: biochemical. The following applies: concentration inhibiting substrate phosphorylation by 50%. The protocol:
This permits the substrate to be labeled with the radioisotope.
Thereafter, the substrate was adsorbed to a filter paper. ATP was washed away with a phosphoric acid solution, and the amount of the phosphorylated substrate was then measured with a liquid scintillation counter.
`c1ccc(CNC2CCC(Nc3ccc4[nH]ncc4c3)CC2)cc1` (mixture of isomers) [Example 171, N1-Benzyl-N4-(1H-5-indazolyl)-1,4-cyclohexanediamine] registered an IC50 of 90 nM.
With `O=C(Nc1ccncc1)Nc1c(Cl)cc(Cl)cc1Cl` [Example 1, N-(4-Pyridyl)-N′-(2,4,6-trichlorophenyl)urea], the midpoint of inhibition, the IC50, lay at 200 nM.
In the case of `O=C(COc1c(Br)cc(F)cc1Br)Nc1ccncc1` [Example 2, N1-(4-Pyridyl)-2-(2,6-dibromo-4-fluorophenoxy)acetamide] it was 2210 nM; in that of `O=C(COc1c(Cl)cccc1Cl)Nc1ccncc1` [Example 3, N1-(4-Pyridyl)-2-(2,6-dichlorophenoxy)acetamide], 910 nM.
`O=C(/C=C/c1c(Cl)cccc1Cl)Nc1ccncc1` [Example 7, N1-(4-Pyridyl)-(E)-3-(2,6-dichlorophenyl)-2-propeneamide] gave an IC50 of 2540 nM.
In turn, `O=C(Nc1ccncc1)Nc1c(F)cccc1F` [Example 8, N-(2,6-Difluorophenyl)-N′-(4-pyridyl)urea] gave an IC50 of 2000 nM.
For `O=C(Nc1ccncc1)Nc1c(Cl)cccc1Cl` [Example 9, N-(2,6-Dichlorophenyl)-N′-(4-pyridyl)urea], half-maximal inhibition (IC50) was put at 850 nM.
As to `O=C(Nc1ccc2[nH]ncc2c1)Nc1c(Cl)cccc1Cl` [Example 13, N-(2,6-Dichlorophenyl)-N′-(1H-5-indazolyl)urea], the IC50 was 980 nM.
For `O=C(COc1c(Cl)cccc1Cl)Nc1ccc2[nH]ncc2c1` [Example 14, N1-(1H-5-Indazolyl)-2-(2,6-dichlorophenoxy)acetamide], the IC50 is 1140 nM. The IC50 values of the last two compounds are within 1.5-fold of each other.
Next, `O=C(COc1c(Cl)cc(F)cc1Cl)Nc1ccc2[nH]ncc2c1` [Example 15, N1-(1H-5-Indazolyl)-2-(2,6-dichloro-4-fluorophenoxy)acetamide]: 460 nM; `O=C(CSc1c(Cl)cccc1Cl)Nc1ccncc1` [Example 17, N1-(4-Pyridyl)-2-[(2,6-dichlorophenyl)-sulfanyl]acetamide]: 9600 nM; `O=C(Nc1ccncc1)Nc1c(F)cccc1Cl` [Example 18, N-(2-Chloro-6-fluorophenyl)-N′-(4-pyridyl)urea]: 2870 nM.
The compound `O=C(Nc1ccncc1)NC1CCCCC1` [Example 19, N-Cyclohexyl-N′-(4-pyridyl)urea] displayed an IC50 of 7260 nM.
`Brc1cccc(CN2CCC(Nc3ccc4[nH]ncc4c3)CC2)c1` [Example 23] registered an IC50 of 124 nM.
In the case of `O=C(COc1c(Cl)cc(F)cc1Cl)Nc1ccncc1` [Example 24, N1-(4-Pyridyl)-2-(2,6-dichloro-4-fluorophenoxy)acetamide] it was 480 nM.
In the case of `CCOC(=O)c1cc(Cl)c(OCC(=O)Nc2ccncc2)c(Cl)c1` [Example 26, Ethyl 3,5-dichloro-4-[2-oxo-2-(4-pyridylamino)ethoxy]benzoate] it was 1030 nM; in that of `O=C(COc1c(F)cc(F)cc1F)Nc1ccncc1` [Example 28, N1-(4-Pyridyl)-2-(2,4,6-trifluorophenoxy)acetamide], 8110 nM; in that of `CCC(=O)c1cc(F)c(OCC(=O)Nc2ccncc2)c(F)c1` [Example 29, N1-(4-Pyridyl)-2-(2,6-difluoro-4-propionyl-phenoxy)acetamiden], 8590 nM.
In the case of `Cc1cc(Cl)c(OCC(=O)Nc2ccncc2)c(Cl)c1` [Example 30, N1-(4-Pyridyl)-2-(2,6-dichloro-4-methylphenoxy)acetamide], half-maximal inhibition (IC50) was put at 1150 nM.
In the case of `O=C(CC1CCCCC1)Nc1ccncc1` [Example 31, N1-(4-Pyridyl)-2-cyclohexylacetamide] it was 5290 nM; in that of `O=C(COc1c(Cl)cc(F)cc1Cl)Nc1ncnc2[nH]ncc12` [Example 32, N1-(1H-Pyrazolo[3,4-d]pyrimidin-4-yl)-2-(2,6-dichloro-4-fluorophenoxy)acetamide], 1370 nM.
For the compound `O=C(Nc1ccc2[nH]ncc2c1)C1CCCCC1` [Example 33], the IC50 was 470 nM.
Next, `O=C(CC1CCCCC1)Nc1ccc2[nH]ncc2c1` [Example 34, N1-(1H-5-Indazoyl)-1-cyclohexylacetamide]: 870 nM; `O=C(/C=C/c1ccccc1O)Nc1ccc2[nH]ncc2c1` [Example 35, N1-(1H-5-Indazolyl)-(E)-3-(2-hydroxyphenyl)-2-propeneamide]: 1280 nM; `O=C(/C=C/c1cccc(O)c1)Nc1ccc2[nH]ncc2c1` [Example 36, N1-(1H-5-Indazolyl)-(E)-3-(3-hydroxyphenyl)-2-propeneamide]: 600 nM.
For the compound `O=C(/C=C/c1ccc(O)cc1)Nc1ccc2[nH]ncc2c1` [Example 37, N1-(1H-5-Indazolyl)-(E)-3-(4-hydroxyphenyl)-2-propeneamide], the IC50 was found to be 305 nM.
Next, `O=C(/C=C/c1ccc(O)c(O)c1)Nc1ccc2[nH]ncc2c1` [Example 38, N1-(1H-5-Indazolyl)-(E)-3-(3,4-dihydroxyphenyl)-2-propeneamide]: 107 nM; `O=C(Cc1ccc([N+](=O)[O-])cc1[N+](=O)[O-])Nc1ccc2[nH]ncc2c1` [Example 39, N1-(1H-5-Indazolyl)-2-(2,4-dinitrophenyl)acetamide]: 122 nM; `COc1cc(/C=C/C(=O)Nc2ccc3[nH]ncc3c2)ccc1O` [Example 40, N1-(1H-5-Indazolyl)-(E)-3-(4-hydroxy-3-methoxyphenyl)-2-propeneamide]: 231 nM.
Compound `COc1ccc(/C=C/C(=O)Nc2ccc3[nH]ncc3c2)cc1O` [Example 41, N1-(1H-5-Indazolyl)-(E)-3-(3-hydroxy-4-methoxyphenyl)-2-propeneamide] yielded an IC50 of 224 nM.
`COc1ccc(/C=C/C(=O)Nc2ccc3[nH]ncc3c2)cc1OC` [Example 42, N1-(1H-5-Indazolyl)-(E)-3-(3,4-dimethoxyphenyl)-2-propeneamide] displayed a 50% inhibitory concentration (IC50) of 605 nM.
The compound `O=C(Cc1ccc(O)c(O)c1)Nc1ccc2[nH]ncc2c1` [Example 44, N1-(1H-5-Indazolyl)-2-(3,4-dihydroxyphenyl)acetamide] had an IC50 of 394 nM.
In the case of `O=C(Cc1ccc2c(c1)OCO2)Nc1ccc2[nH]ncc2c1` [Example 45, N1-(1H-5-Indazolyl)-2-(1,3-benzodioxol-5-yl)acetamide] it was 153 nM.
In turn, `O=C(CCc1ccc(O)cc1)Nc1ccc2[nH]ncc2c1` [Example 47, N1-(1H-5-Indazolyl)-3-(4-hydroxyphenyl)-propaneamide] showed an IC50 of 735 nM.
Next, `O=C(Cc1cccc([N+](=O)[O-])c1)Nc1ccc2[nH]ncc2c1` [Example 48, N1-(1H-5-Indazolyl)-2-(3-nitrophenyl)acetamide]: 191 nM; `O=C(Cc1ccc([N+](=O)[O-])cc1)Nc1ccc2[nH]ncc2c1` [Example 49, N1-(1H-5-Indazolyl)-2-(4-nitrophenyl)acetamide]: 513 nM; `O=C(CNc1ccc(O)cc1)Nc1ccc2[nH]ncc2c1` [Example 50, N1-(1H-5-Indazolyl)-2-(4-hydroxyanilino)acetamide]: 326 nM.
Take `O=C(COc1ccc(O)cc1)Nc1ccc2[nH]ncc2c1` [Example 51, N1-(1H-5-Indazolyl)-2-(4-hydroxyphenoxy)acetamide]: the IC50 was 459 nM.
Regarding `O=C(CCc1ccc2c(c1)OCO2)Nc1ccc2[nH]ncc2c1` [Example 52, N1-(1H-5-Indazolyl)-3-(1,3-benzodioxol-5-yl)propaneamide], the IC50 is 230 nM.

The values above are taken from patent publication US7217722B2 (Kirin Beer Kabushiki Kaisha, priority 2000, dated 2007).
